Read-outs that look alike come from different tables or passages of the source.
Tests used:
Assay in all cases: Synergistic Growth Inhibition Assay (MIC and FIC index, 96-well, resazurin)
Format in all cases: cell-based
[1] = tested on: Fusarium oxysporum; settings: Fusarium oxysporum
Procedure: (§1) In some embodiments, the synergistic action between the pesticidal active ingredient, and the at least one C6-C10 (or alternatively C11 or C12) saturated or unsaturated aliphatic acid components of the pesticidal compositions according to embodiments of the present disclosure was tested using a Synergistic Growth Inhibition Assay, which is derived from and related to a checkerboard assay as is known in the art for testing of combinations of antimicrobial agents. In the Synergistic Growth Inhibition Assay used in accordance with some embodiments of the present disclosure, multiple dilutions of combinations of pesticidal active ingredient and at least one C6-C10 saturated or unsaturated aliphatic acid agents are tested in individual cells for inhibitory activity against a target pest or pathogenic organism. In one such embodiment, the combinations of pesticidal active ingredient and C6-C10 (or alternatively C11 or C12) saturated or unsaturated aliphatic acid agents may preferably be tested in decreasing concentrations. In a further such embodiment, the combinations of pesticidal active ingredient and C6-C10 (or alternatively C11 or C12) saturated or unsaturated aliphatic acid agents may be tested in increasing concentrations. These multiple combinations of the pesticidal active ingredient and at least one C6-C10 (or alternatively C11 or C12) saturated or unsaturated aliphatic acid agents may be prepared in 96-well microtiter plates. In one such embodiment, the Synergistic Growth Inhibition Assay then comprises rows which each contain progressively decreasing concentrations of the pesticidal active ingredient and one or more C6-C10 (or alternatively C11 or C12) saturated or unsaturated aliphatic acid agents to test for the MIC of the agents in combination at which growth of the target pest or pathogen is inhibited. Thus, each well of the microtiter plate is a unique combination of the two agents, at which inhibitory efficacy of the combination against the target pest or pathogen can be determined.
(§2) In one embodiment according to the present disclosure, for each row of microtiter cells in the Synergistic Growth Inhibition Assay, the FIC index is calculated from the lowest concentration of the pesticidal active ingredient and one or more C6-C10 saturated or unsaturated aliphatic acid agents necessary to inhibit growth of a target pest or pathogen. The FIC of each component is derived by dividing the concentration of the agent present in that well of the microtiter plate by the minimal inhibitory concentration (MIC) needed of that agent alone to inhibit growth of the target pest or pathogen. The FIC index is then the sum of these values for both agents in that well of the microtiter plate. […] Fractional inhibitory concentration indices may then used as measure of synergy. […] When the FIC index is equal to 1, the combination is additive.
(§3) Then, serial dilutions of these initial compositions in successive wells in the row of the microtiter plate were used to assay the pesticidal composition under the same conditions to determine the concentration of the composition combining the two agents corresponding to the microtiter well in which growth inhibition of the target pest or organism ceases.
Resazurin dye (also known as Alamar blue dye) was used as an indicator to determine the presence of growth or inhibition of growth of Fusarium oxysporum in the wells of the 96 well microtiter plates used in the exemplary Synergistic Growth Inhibition Assay. In addition to the color change of the resazurin dye in the presence of growth of the Fusarium oxysporum, an optical or visual examination of the microtiter well may also be made to additionally determine the presence of growth or inhibition of growth of the Fusarium oxysporum.

[2] = tested on: Botrytis cinerea; settings: for MIC: Botrytis cinerea, 48 h
Procedure: as §1, §2, §3
(§4) Similarly to as described above, Resazurin was used as an indicator of growth or inhibition of growth of Botrytis cinerea in the exemplary Synergistic Growth Inhibition Assay. In addition to the color change of the resazurin, an optical or visual examination of the microtiter well may also be made to additionally determine the presence of growth or inhibition of growth of the Botrytis cinerea.

[3] = tested on: Sclerotinia sclerotiorum; settings: for MIC: Sclerotinia sclerotiorum
Procedure: as §1, §2, §3
as §4, with “Sclerotinia sclerotiorum” for “Botrytis cinerea”, “Sclerotinia sclerotiorum.” for “Botrytis cinerea.”

[4] = Table 23, Compound A alone, incubation 48 hours, read-out: MIC (A)
[5] = Table 20B, Compound A alone, incubation 7 days, read-out: MIC (A)
[6] = Table 51, Compound B alone, 48 hours incubation, read-out: MIC (B)
[7] = Table 59, Compound B alone, 48 hours incubation, read-out: MIC (B)
[8] = Table 56, Compound B alone, 48 hours incubation, read-out: MIC (B)
[9] = 48 h, Table 27, Compound B alone, 48 hours incubation, read-out: MIC (B)
[10] = 48 h, Table 30, Compound B alone, 48 hours incubation, read-out: MIC (B)
[11] = Table 24, Compound B alone, 48 hours incubation, read-out: MIC (B)
[12] = Table 25, Compound B alone, 48 hours incubation, read-out: MIC (B)
[13] = Table 26, Compound B alone, 48 hours incubation, read-out: MIC (B)
[14] = Table 54, Compound B alone, 48 hours incubation, read-out: MIC (B)

## Fc1ccc([C@]2(Cn3cncn3)O[C@H]2c2ccccc2Cl)cc1 (racemic) [Epoxiconazole, reference compound]
[1]; 48 h, Table 31, Compound A alone, 48 hours incubation, read-out: MIC (A)
  MIC: 30 µg/mL
[2]; [4]
  MIC: 30 µg/mL
[2]; Table 49, Compound A alone, 48 hours incubation, read-out: MIC (A)
  MIC: 30 µg/mL
[3]; Table 19, Compound A alone, incubation 7 days, read-out: MIC (A)
  MIC: 30 µg/mL
[3]; [5]
  MIC: 30 µg/mL
[3]; Table 40, Compound A alone, 7 days incubation, read-out: MIC (A)
  MIC: 30 µg/mL

## CCC(CC)(CC)C(=O)O [2,2-Diethylbutanoic acid]
[2]; [6]
  MIC: 250 µg/mL
[2]; [7]
  MIC: 250 µg/mL

## CCCCCCCCC(O)C(=O)O (centres unmarked) [2-Hydroxydecanoic acid]
[2]; [7]
  MIC: 312 µg/mL

## CCCCCCCCC(C)C(=O)O (centres unmarked) [2-Methyldecanoic acid]
[2]; [6]
  MIC: 7.81 µg/mL
[2]; [8]
  MIC: 125 µg/mL
[2]; [7]
  MIC: 125 µg/mL

## CCCCCCC(C)C(=O)O (centres unmarked) [2-Methyloctanoic acid]
[2]; [6]
  MIC: 39.1 µg/mL
[2]; [8]
  MIC: 312 µg/mL
[2]; [7]
  MIC: 78.1 µg/mL

## CCCCC(O)C(=O)O (centres unmarked) [2-hydroxyhexanoic acid]
[2]; [7]
  MIC: 1250 µg/mL

## CC=CCCC(=O)O [4-Hexenoic acid]
[1]; [9]
  MIC: 312 µg/mL
[1]; [10]
  MIC: 312 µg/mL
[2]; Table 43, Compound B alone, 48 hours incubation, read-out: MIC (B)
  MIC: 312 µg/mL
[2]; Table 45, Compound B alone, 48 hours incubation, read-out: MIC (B)
  MIC: 312 µg/mL

## O=C(O)CCCCCCCO [8-Hydroxyoctanoic acid]
[2]; read-out: MIC (B), Table 51, Compound B alone, 48 hours incubation
  MIC: 1250 µg/mL
[2]; read-out: MIC (B), Table 56, Compound B alone, 48 hours incubation
  MIC: 2500 µg/mL
[2]; read-out: MIC (B), Table 59, Compound B alone, 48 hours incubation
  MIC: 1250 µg/mL

## C/C=C/C=C/C(=O)[O-].[K+] [(2E,4E)-2,4-hexadienoic acid, potassium salt]
[1]; 24 h, read-out: MIC (B), Table 2, Compound B alone, 24 hour incubation
  MIC: 625 µg/mL
[1]; 24 h, read-out: MIC(B), Table 1, Compound B alone, 24 hour incubation
  MIC: 625 µg/mL

## CCCCCCCC/C=C\CCCCCCCC(=O)O [(9Z)-octadecenoic acid]
[2]; Table 49, Compound B alone, 48 hours incubation
  MIC (B): 5000 µg/mL
[2]; Table 50, Compound B alone, 48 hours incubation
  MIC (B): 5000 µg/mL
[3]; Table 33, Compound B alone, 7 days incubation
  MIC (B): 5000 µg/mL

## CCCCCCC/C=C\C(=O)O [Cis-2-decenoic acid]
[3]; Table 34, Compound B alone, 7 days incubation, read-out: MIC (B)
  MIC: 19.5 µg/mL

## CCCCCCCCCC(=O)O [Decanoic acid, decanoic acid]
[2]; Table 22, Compound B alone, incubation 48 hours, read-out: MIC (B)
  MIC: 78.1 µg/mL
[2]; [11]
  MIC: 312 µg/mL
[2]; [12]
  MIC: 15.6 µg/mL
[2]; [13]
  MIC: 78.1 µg/mL
[2]; Table 52, Compound B alone, 48 hours incubation, read-out: MIC(B)
  MIC: 15.6 µg/mL
[2]; [14]
  MIC: 15.6 µg/mL

## CCCCCCCCCC(=O)[O-].[K+] [Decanoic acid, potassium salt, decanoic acid, potassium salt]
[1]; 24 h, read-out: MIC(B), Table 7, Compound B alone, 24 hour incubation
  MIC: 78.1 µg/mL
[1]; read-out: MIC (B), Table 8, Compound B alone
  MIC: 78.1 µg/mL

## CCCCCCCCCCCC(=O)O [Dodecanoic acid, dodecanoic acid]
[2]; Table 21, Compound B alone, incubation 48 hours, read-out: MIC (B)
  MIC: 25 µg/mL
[2]; [11]
  MIC: 50 µg/mL
[2]; [12]
  MIC: 50 µg/mL
[2]; [13]
  MIC: 50 µg/mL
[2]; [14]
  MIC: 50 µg/mL
[2]; [8]
  MIC: 50 µg/mL
[3]; Table 16, Compound B alone, incubation 7 days, read-out: MIC (B)
  MIC: 50 µg/mL
[3]; Table 17, Compound B alone, incubation 7 days, read-out: MIC (B)
  MIC: 50 µg/mL
[3]; Table 18, Compound B alone, incubation 7 days, read-out: MIC (B)
  MIC: 50 µg/mL
[3]; Table 20A, Compound B alone, incubation 7 days, read-out: MIC (B)
  MIC: 25 µg/mL

## N#Cc1c[nH]cc1-c1cccc2c1OC(F)(F)O2 [Fludioxonil, fludioxonil, reference compound]
[1]; 24 h, read-out: MIC (A), Table 2, Compound A alone, 24 hour incubation
  MIC: 0.481 µg/mL
[1]; 24 h, read-out: MIC (A), Table 3, Compound A alone, 24 hour incubation
  MIC: 0.241 µg/mL
[1]; 24 h, read-out: MIC(A), Table 7, Compound A alone, 24 hour incubation
  MIC: 0.481 µg/mL
[1]; 48 h, read-out: MIC (A), Table 13, Compound A alone, incubation 48 hours
  MIC: 21 µg/mL
[1]; 48 h, read-out: MIC (A), Table 15B, Compound A alone, incubation 48 hours
  MIC: 21 µg/mL
[1]; 48 h, read-out: MIC (A), Table 29, Compound A alone, 48 hours incubation
  MIC: 21 µg/mL
[1]; read-out: MIC (A), Table 8, Compound A alone
  MIC: 0.481 µg/mL
[3]; read-out: MIC (A), Table 37, Compound A alone, 7 days incubation
  MIC: 0.164 µg/mL

## COCC(=O)N(c1c(C)cccc1C)C(C)C(=O)OC (centres unmarked) [Metalaxyl, reference compound]
[2]; [4]
  MIC: 316 µg/mL
[2]; Table 26, Compound A alone, 48 hours incubation, read-out: MIC (A)
  MIC: 316 µg/mL
[2]; Table 48, Compound A alone, 48 hours incubation, read-out: MIC (A)
  MIC: 316 µg/mL
[3]; [5]
  MIC: 1260 µg/mL

## CCCCCCCC/C=C\CCCCCCCC(=O)O [Oleic acid]
[2]; [14]
  MIC: 5000 µg/mL
[2]; [8]
  MIC: 5000 µg/mL

## Cc1cc(C(F)(F)F)nn1CC(=O)N1CCC(c2nc(C3=NOC(c4c(F)cccc4F)C3)cs2)CC1 (centres unmarked) [Oxathiapiprolin, reference compound]
[2]; Table 55, Compound A alone, 48 hours incubation
  MIC (A): 500 µg/mL

## CCCC1COC(Cn2cncn2)(c2ccc(Cl)cc2Cl)O1 (centres unmarked) [Propiconazole, reference compound]
[2]; Table 24, Compound A alone, 48 hours incubation, read-out: MIC (A)
  MIC: 89 µg/mL
[3]; Table 18, Compound A alone, incubation 7 days, read-out: MIC (A)
  MIC: 89 µg/mL
[3]; [5]
  MIC: 89 µg/mL
[3]; Table 39, Compound A alone, 7 days incubation, read-out: MIC (A)
  MIC: 89 µg/mL

## CCCCC/C=C/C(=O)O [Trans-2-octenoic acid, trans-2-octenoic acid]
[1]; 24 h, Table 3, Compound B alone, 24 hour incubation, read-out: MIC(B)
  MIC: 149 µg/mL
[1]; 24 h, Table 4, Compound B alone, 24 hour incubation, read-out: MIC (B)
  MIC: 149 µg/mL
[1]; [9]
  MIC: 312 µg/mL
[1]; [10]
  MIC: 156 µg/mL
[1]; 48 h, Table 31, Compound B alone, 48 hours incubation, read-out: MIC (B)
  MIC: 156 µg/mL
[1]; 48 h, Table 32, Compound B alone, 48 hours incubation, read-out: MIC (B)
  MIC: 312 µg/mL

## CON=C(C(=O)OC)c1ccccc1CON=C(C)c1cccc(C(F)(F)F)c1 [Trifloxystrobin, reference compound]
[2]; Table 58, Compound A alone, 48 hours incubation, read-out: MIC (A)
  MIC: 250 µg/mL
[2]; Table 59, Compound A alone, 48 hours incubation, read-out: MIC (A)
  MIC: 250 µg/mL

Source: patent US11839212B2, “Synergistic pesticidal compositions and methods for delivery of insecticidal active ingredients” (0903608 B.C. Ltd., priority 2018, dated 2023)
